The values below are quoted from earlier work in US6500456B1 (priority 1997, dated 2002).

For the data set the following is noted: at 20° C., pure nitroglycerin.

`O=[N+]([O-])OCC(CO[N+](=O)[O-])O[N+](=O)[O-]` [nitroglycerin]: the Vapor pressure entry is “about 0.00026 mm”.
